The assay deals with T1, EmrE (Escherichia coli, UniProt P23895).
T1 sequence (P23895 1-110): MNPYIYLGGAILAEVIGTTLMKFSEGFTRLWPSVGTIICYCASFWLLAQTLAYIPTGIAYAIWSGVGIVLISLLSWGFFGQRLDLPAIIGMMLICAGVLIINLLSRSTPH
Briefly: biochemical.

The record followed here is publication doi:10.1101/141937v1 (biorxiv, 2017).

As to `c1ccc([P+](c2ccccc2)(c2ccccc2)c2ccccc2)cc1` [TPP^+], the affinity, expressed as Kd, was 70 ± 9 µM.

A word on the Kd: it is the concentration at which binding is half-saturated.
